The structures appear in SMILES notation. Several values for one entry are separate records, joined by “and”; a condition that tells them apart may be missing. Equal values may be shown once.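 Grown in 96-well plates, cells were treated for 48 hours with each compound at five concentrations. Insufficient inhibition: endpoint recorded as highest concentration tested. GI50 is the concentration that inhibits growth by half. TGI is the concentration that stops growth completely.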

Some test systems named below: OVCAR-3 ovarian; HOP-92 NSCLC; NCI-H226 lung; SF-295 CNS; HCC-2998 colon; U251 CNS; SR leukemia; HCT-15 colon; SK-OV-3 ovarian; SNB-19 CNS.
Holding throughout (assay): NCI anticancer screen, dose series, 48 h

`NC(N)=NC(N)=Nc1cc2ccccc2c2ccccc12`: the GI50 is 12.3 µM in the test on OVCAR-3 ovarian; 1.31 µM with HOP-92 NSCLC; 10.5 µM with NCI-H226 lung; 13.3 µM with SF-295 CNS; 6.89 µM in the test on HCC-2998 colon; 4.83 µM with U251 CNS. The GI50 in the test on SR leukemia was 2.68 µM; with HCT-15 colon it was 14.9 µM; in the test on SK-OV-3 ovarian, 11.4 µM; in the test with SNB-19 CNS, 7.69 µM. In addition, the TGI in the test on OVCAR-3 ovarian turned out to be 26.6 µM; with HOP-92 NSCLC it was 11 µM; with NCI-H226 lung it was 25.5 µM; with SF-295 CNS, 28.4 µM; in the test on HCC-2998 colon, 24.2 µM; in the test on U251 CNS, 18.1 µM. Moreover, the TGI in the test on SR leukemia worked out at 9.34 µM; with HCT-15 colon it was 30.5 µM; in the test on SK-OV-3 ovarian, 24 µM; in the test on SNB-19 CNS it was 21.6 µM.
With `CC(C)CSc1nc(Nc2ccccc2)c(C#N)c(-c2ccc(F)cc2)n1`, the GI50 with OVCAR-3 ovarian is 1.11 µM; with HOP-92 NSCLC, 0.605 µM; with NCI-H226 lung, 3.79 µM; in the test with SF-295 CNS, 0.971 µM; with HCC-2998 colon, 13.1 µM; in the test with U251 CNS, 0.652 µM. Besides, the GI50 in the test with SR leukemia is 0.976 µM; in the test with HCT-15 colon it was 9.06 µM; in the test with SK-OV-3 ovarian it was 8.13 µM; with SNB-19 CNS it was 2.45 µM. The TGI in the test on OVCAR-3 ovarian was 4.22 µM; in the test on HOP-92 NSCLC, 2.63 µM; with NCI-H226 lung, 20.1 µM; in the test with SF-295 CNS it was 11.4 µM; with HCC-2998 colon, over 100 µM; with U251 CNS, 2.78 µM. The TGI with SR leukemia was 14 µM; in the test on HCT-15 colon it was over 100 µM; with SK-OV-3 ovarian, 32.5 µM; with SNB-19 CNS it was 13.2 µM.
For `CCCCCCCCCCC(O)C1CCC(C2CCC(C(O)CCCCC(O)CCCCCC(O)CC3=CC(C)OC3=O)O2)O1` (configuration not stated), the GI50 in the test with OVCAR-3 ovarian was 2.16 µM; in the test on HOP-92 NSCLC, 3.87 µM; in the test on NCI-H226 lung it was over 25 µM; in the test with SF-295 CNS, 2 µM; with U251 CNS, 5.65 µM; in the test on HCT-15 colon it was 4.64 µM. Besides, in the test with SNB-19 CNS, the GI50 was 1.41 µM. Moreover, the TGI was 9.65 µM and > 25 µM with OVCAR-3 ovarian; over 25 µM in the test with HOP-92 NSCLC; over 25 µM in the test on NCI-H226 lung; over 25 µM in the test on SF-295 CNS; over 25 µM in the test on HCC-2998 colon; over 25 µM in the test on U251 CNS. In addition, the TGI in the test with SR leukemia, with HCT-15 colon, with SK-OV-3 ovarian and with SNB-19 CNS was over 25 µM throughout.
`COc1ccc(OC)c(/C=C/NC=O)c1`: the TGI with OVCAR-3 ovarian, with HOP-92 NSCLC, with NCI-H226 lung, in the test with SF-295 CNS, in the test with HCC-2998 colon and in the test on U251 CNS was over 100 µM throughout. The TGI in the test with SR leukemia was over 31.6 µM; in the test with HCT-15 colon, over 100 µM; in the test on SK-OV-3 ovarian it was over 100 µM; with SNB-19 CNS it was over 100 µM.
For `CN(C)C(=S)SN(C)C(=O)Nc1ccccc1`, the TGI in the test with OVCAR-3 ovarian is 41.2 µM; in the test with HOP-92 NSCLC it was 22.2 µM; with NCI-H226 lung, over 92.4 µM; in the test with SF-295 CNS, over 100 µM; in the test with HCC-2998 colon, over 62.9 µM; in the test on U251 CNS it was over 93.8 µM. Besides, the TGI in the test on SR leukemia is 72.3 µM; in the test on HCT-15 colon, over 85.3 µM; in the test on SK-OV-3 ovarian, over 100 µM; with SNB-19 CNS it was over 100 µM.
`Cn1cc(-c2csc(-c3cccc(F)c3)n2)c2cccnc21`: the GI50 was 19 µM with OVCAR-3 ovarian; 1.04 µM in the test on HOP-92 NSCLC; 19.4 µM in the test with NCI-H226 lung; 14.9 µM in the test with SF-295 CNS; 18.9 µM in the test with HCC-2998 colon; 15.5 µM in the test on U251 CNS. For the same compound, the GI50 in the test on SR leukemia is 13.5 µM; with HCT-15 colon it was 14 µM; in the test on SK-OV-3 ovarian, 24.9 µM; in the test with SNB-19 CNS, 20.1 µM. Moreover, the TGI in the test on OVCAR-3 ovarian came to 33.9 µM; with HOP-92 NSCLC it was 18.6 µM; in the test on NCI-H226 lung, 51.1 µM; with SF-295 CNS it was 33.7 µM; in the test with HCC-2998 colon, 33.6 µM; with U251 CNS, 31.8 µM. Also, the TGI was over 100 µM in the test with SR leukemia, 35.7 µM in the test on HCT-15 colon, 62.2 µM in the test on SK-OV-3 ovarian and 54.4 µM in the test on SNB-19 CNS.
Turning to `COc1ccc(-c2cc3c(nn2)-c2ccccc2C3=O)cc1`, the GI50 in the test with OVCAR-3 ovarian, with HOP-92 NSCLC, with NCI-H226 lung, in the test with SF-295 CNS, in the test with HCC-2998 colon and in the test on U251 CNS was over 100 µM throughout. In addition, the GI50 was 14.7 µM in the test on SR leukemia, over 100 µM in the test with HCT-15 colon, over 100 µM in the test on SK-OV-3 ovarian and over 100 µM in the test with SNB-19 CNS. Also, the TGI in the test with OVCAR-3 ovarian, with HOP-92 NSCLC, in the test with NCI-H226 lung, in the test with SF-295 CNS, with HCC-2998 colon and with U251 CNS was over 100 µM throughout. Besides, the TGI in the test with SR leukemia, in the test on HCT-15 colon, in the test on SK-OV-3 ovarian and in the test on SNB-19 CNS was over 100 µM throughout.
Take `N#C/C(C(=S)Nc1ccccc1)=C1/NN=C2c3ccccc3C(=O)NN21`: the GI50 in the test with OVCAR-3 ovarian is 21.2 µM; in the test with HOP-92 NSCLC, 29.2 µM; in the test on NCI-H226 lung, 49.6 µM; with SF-295 CNS it was 17.1 µM; in the test with HCC-2998 colon, 24.1 µM; in the test on U251 CNS it was 32.1 µM. Further, the GI50 in the test with SR leukemia was 19.5 µM; in the test with HCT-15 colon, 27.6 µM; in the test on SK-OV-3 ovarian it was 19.6 µM; in the test on SNB-19 CNS, 30.4 µM. In addition, the TGI in the test on OVCAR-3 ovarian was 52.7 µM; in the test with HOP-92 NSCLC it was 88.7 µM; with NCI-H226 lung, over 100 µM; in the test on SF-295 CNS, 49.5 µM; in the test with HCC-2998 colon, over 100 µM; in the test with U251 CNS, over 100 µM. Also, the TGI in the test on SR leukemia is over 100 µM; in the test with HCT-15 colon it was over 100 µM; with SK-OV-3 ovarian it was 59.8 µM; in the test with SNB-19 CNS, over 100 µM.

The record behind these values is PubChem BioAssay (NCI).
